According to ChEMBL document CHEMBL1772971, “Novel 18F-labeled benzofuran derivatives with improved properties for positron emission tomography (PET) imaging of β-amyloid plaques in Alzheimer's brains” (J Med Chem, 2011):
Blank lines part the entries; values can stand above or below the compound they belong to. Activity calls are given as the source filed them. No cut-off for these calls is given here.

Tests used:
[1] = Displacement of [125I]IMPY from amyloid beta (1 to 42) after 3 hrs by gamma counting
[2] = molecular target: Amyloid-beta precursor protein (Homo sapiens) (UniProt P05067); assay: Binding affinity to beta amyloid plaques in human Alzheimer's disease brain at 444 kBq/50 uL after 1 hr by autoradiography; conditions: tested as the 18F-labelled form
[3] = molecular target: Amyloid-beta precursor protein (Homo sapiens) (UniProt P05067); assay: Binding affinity to beta amyloid plaques in normal human brain at 444 kBq/50 uL after 1 hr by autoradiography; conditions: tested as the 18F-labelled form
[4] = system: Brain; assay: Ratio of drug level in brain after 2 mins to brain after 60 mins in ddY mouse […] at 185 to 370 kBq, iv; format: ADME, organism-based; conditions: in vivo
[5] = system: Bone; assay: Biodistribution in ddY mouse bone at 185 to 370 kBq, iv after 10 mins by gamma counting; format: ADME, organism-based, Bone element; conditions: in vivo
[6] = system: Brain; assay: Biodistribution in ddY mouse brain at 185 to 370 kBq, iv after 60 mins by gamma counting; format: ADME, organism-based; conditions: in vivo, 1 h
[7] = system: Blood; assay: Biodistribution in ddY mouse blood at 185 to 370 kBq, iv after 10 mins by gamma counting; format: ADME, organism-based; conditions: in vivo
[8] = system: Bone; assay: Biodistribution in ddY mouse bone at 185 to 370 kBq, iv after 60 mins by gamma counting; format: ADME, organism-based, Bone element; conditions: in vivo, 1 h
[9] = system: Brain; assay: Biodistribution in wild type mouse brain at 11.1 MBq, iv after 30 mins by autoradiography; format: ADME, organism-based; conditions: in vivo, 0.5 h
[10] = system: Lung; assay: Biodistribution in ddY mouse lung at 185 to 370 kBq, iv after 2 mins by gamma counting; format: ADME, organism-based; conditions: in vivo
[11] = system: Brain; assay: Biodistribution in ddY mouse brain at 185 to 370 kBq, iv after 30 mins by gamma counting; format: ADME, organism-based; conditions: in vivo, 0.5 h
[12] = system: Liver; assay: Biodistribution in ddY mouse liver at 185 to 370 kBq, iv after 10 mins by gamma counting; format: ADME, organism-based; conditions: in vivo
[13] = system: Heart; assay: Biodistribution in ddY mouse […] at 185 to 370 kBq, iv after 30 mins by gamma counting; format: ADME, organism-based; conditions: in vivo, 0.5 h
[14] = system: Blood; assay: Biodistribution in ddY mouse blood at 185 to 370 kBq, iv after 2 mins by gamma counting; format: ADME, organism-based; conditions: in vivo
[15] = system: Spleen; assay: Biodistribution in ddY mouse spleen at 185 to 370 kBq, iv after 2 mins by gamma counting; format: ADME, organism-based; conditions: in vivo
[16] = system: Spleen; assay: Biodistribution in ddY mouse spleen at 185 to 370 kBq, iv after 10 mins by gamma counting; format: ADME, organism-based; conditions: in vivo
[17] = system: Pancreas; assay: Biodistribution in ddY mouse pancreas at 185 to 370 kBq, iv after 2 mins by gamma counting; format: ADME, organism-based; conditions: in vivo
[18] = system: Intestine; assay: Biodistribution in ddY mouse intestine at 185 to 370 kBq, iv after 10 mins by gamma counting; format: ADME, organism-based; conditions: in vivo
[19] = system: Intestine; assay: Biodistribution in ddY mouse intestine at 185 to 370 kBq, iv after 30 mins by gamma counting; format: ADME, organism-based; conditions: in vivo, 0.5 h
[20] = system: Brain; assay: Biodistribution in Tg2576 transgenic mouse brain at 11.1 MBq, iv after 30 mins by autoradiography; format: ADME, organism-based; conditions: in vivo, 0.5 h
[21] = system: Intestine; assay: Biodistribution in ddY mouse intestine at 185 to 370 kBq, iv after 2 mins by gamma counting; format: ADME, organism-based; conditions: in vivo
[22] = system: Liver; assay: Biodistribution in ddY mouse liver at 185 to 370 kBq, iv after 2 mins by gamma counting; format: ADME, organism-based; conditions: in vivo
[23] = system: Brain; assay: Biodistribution in ddY mouse brain at 185 to 370 kBq, iv after 10 mins by gamma counting; format: ADME, organism-based; conditions: in vivo
[24] = system: Lung; assay: Biodistribution in ddY mouse lung at 185 to 370 kBq, iv after 30 mins by gamma counting; format: ADME, organism-based; conditions: in vivo, 0.5 h
[25] = system: Pancreas; assay: Biodistribution in ddY mouse pancreas at 185 to 370 kBq, iv after 60 mins by gamma counting; format: ADME, organism-based; conditions: in vivo, 1 h
[26] = system: Bone; assay: Biodistribution in ddY mouse bone at 185 to 370 kBq, iv after 2 mins by gamma counting; format: ADME, organism-based, Bone element; conditions: in vivo
[27] = system: Stomach; assay: Biodistribution in ddY mouse stomach assessed per organ at 185 to 370 kBq, iv after 2 mins by gamma counting; format: ADME, organism-based; conditions: in vivo
[28] = system: Stomach; assay: Biodistribution in ddY mouse stomach assessed per organ at 185 to 370 kBq, iv after 30 mins by gamma counting; format: ADME, organism-based; conditions: in vivo, 0.5 h
[29] = system: Heart; assay: Biodistribution in ddY mouse […] at 185 to 370 kBq, iv after 10 mins by gamma counting; format: ADME, organism-based; conditions: in vivo
[30] = system: Pancreas; assay: Biodistribution in ddY mouse pancreas at 185 to 370 kBq, iv after 30 mins by gamma counting; format: ADME, organism-based; conditions: in vivo, 0.5 h
[31] = system: Lung; assay: Biodistribution in ddY mouse lung at 185 to 370 kBq, iv after 60 mins by gamma counting; format: ADME, organism-based; conditions: in vivo, 1 h
[32] = system: Kidney; assay: Biodistribution in ddY mouse kidney at 185 to 370 kBq, iv after 30 mins by gamma counting; format: ADME, organism-based; conditions: in vivo, 0.5 h
[33] = system: Bone; assay: Biodistribution in ddY mouse bone at 185 to 370 kBq, iv after 30 mins by gamma counting; format: ADME, organism-based, Bone element; conditions: in vivo, 0.5 h
[34] = system: Spleen; assay: Biodistribution in ddY mouse spleen at 185 to 370 kBq, iv after 60 mins by gamma counting; format: ADME, organism-based; conditions: in vivo, 1 h
[35] = system: Heart; assay: Biodistribution in ddY mouse […] at 185 to 370 kBq, iv after 2 mins by gamma counting; format: ADME, organism-based; conditions: in vivo
[36] = system: Kidney; assay: Biodistribution in ddY mouse kidney at 185 to 370 kBq, iv after 2 mins by gamma counting; format: ADME, organism-based; conditions: in vivo
[37] = system: Stomach; assay: Biodistribution in ddY mouse stomach assessed per organ at 185 to 370 kBq, iv after 60 mins by gamma counting; format: ADME, organism-based; conditions: in vivo, 1 h
[38] = system: Pancreas; assay: Biodistribution in ddY mouse pancreas at 185 to 370 kBq, iv after 10 mins by gamma counting; format: ADME, organism-based; conditions: in vivo
[39] = system: Kidney; assay: Biodistribution in ddY mouse kidney at 185 to 370 kBq, iv after 60 mins by gamma counting; format: ADME, organism-based; conditions: in vivo, 1 h
[40] = system: Kidney; assay: Biodistribution in ddY mouse kidney at 185 to 370 kBq, iv after 10 mins by gamma counting; format: ADME, organism-based; conditions: in vivo
[41] = system: Liver; assay: Biodistribution in ddY mouse liver at 185 to 370 kBq, iv after 30 mins by gamma counting; format: ADME, organism-based; conditions: in vivo, 0.5 h
[42] = system: Intestine; assay: Biodistribution in ddY mouse intestine at 185 to 370 kBq, iv after 60 mins by gamma counting; format: ADME, organism-based; conditions: in vivo, 1 h
[43] = system: Blood; assay: Biodistribution in ddY mouse blood at 185 to 370 kBq, iv after 30 mins by gamma counting; format: ADME, organism-based; conditions: in vivo, 0.5 h
[44] = system: Blood; assay: Biodistribution in ddY mouse blood at 185 to 370 kBq, iv after 60 mins by gamma counting; format: ADME, organism-based; conditions: in vivo, 1 h
[45] = system: Liver; assay: Biodistribution in ddY mouse liver at 185 to 370 kBq, iv after 60 mins by gamma counting; format: ADME, organism-based; conditions: in vivo, 1 h
[46] = system: Lung; assay: Biodistribution in ddY mouse lung at 185 to 370 kBq, iv after 10 mins by gamma counting; format: ADME, organism-based; conditions: in vivo
[47] = system: Brain; assay: Biodistribution in ddY mouse brain at 185 to 370 kBq, iv after 2 mins by gamma counting; format: ADME, organism-based; conditions: in vivo
[48] = system: Stomach; assay: Biodistribution in ddY mouse stomach assessed per organ at 185 to 370 kBq, iv after 10 mins by gamma counting; format: ADME, organism-based; conditions: in vivo
[49] = system: Spleen; assay: Biodistribution in ddY mouse spleen at 185 to 370 kBq, iv after 30 mins by gamma counting; format: ADME, organism-based; conditions: in vivo, 0.5 h
[50] = system: Heart; assay: Biodistribution in ddY mouse […] at 185 to 370 kBq, iv after 60 mins by gamma counting; format: ADME, organism-based; conditions: in vivo, 1 h

Sequence of Amyloid-beta precursor protein (Homo sapiens) (P05067 whole entry): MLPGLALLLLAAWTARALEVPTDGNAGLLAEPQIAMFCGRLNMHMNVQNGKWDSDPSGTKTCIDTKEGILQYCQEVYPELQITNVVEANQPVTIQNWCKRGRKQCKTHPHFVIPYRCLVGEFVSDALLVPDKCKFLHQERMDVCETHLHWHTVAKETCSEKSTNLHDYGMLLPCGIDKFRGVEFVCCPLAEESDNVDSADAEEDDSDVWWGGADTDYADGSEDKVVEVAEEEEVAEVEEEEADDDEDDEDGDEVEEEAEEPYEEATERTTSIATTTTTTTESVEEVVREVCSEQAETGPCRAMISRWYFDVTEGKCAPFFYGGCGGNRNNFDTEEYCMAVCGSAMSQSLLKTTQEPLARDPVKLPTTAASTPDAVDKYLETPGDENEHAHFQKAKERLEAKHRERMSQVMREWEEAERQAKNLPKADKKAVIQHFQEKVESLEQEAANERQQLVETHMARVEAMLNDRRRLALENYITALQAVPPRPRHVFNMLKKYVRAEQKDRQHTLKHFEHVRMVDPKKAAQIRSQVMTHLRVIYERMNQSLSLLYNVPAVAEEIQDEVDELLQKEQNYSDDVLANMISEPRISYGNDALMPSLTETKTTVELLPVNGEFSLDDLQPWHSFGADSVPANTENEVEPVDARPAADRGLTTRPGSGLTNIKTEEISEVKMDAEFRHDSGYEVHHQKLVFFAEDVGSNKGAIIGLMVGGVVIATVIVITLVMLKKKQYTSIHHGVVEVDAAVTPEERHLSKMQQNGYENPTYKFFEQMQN

SMILES: CNc1ccc(-c2cc3cc(OCCOCCOCCF)ccc3o2)cn1
Ki [1]: 2.41 nM
Activity [2]: Active

SMILES: CNc1ccc(/C=C/c2ccc(OCCOCCOCC[18F])cc2)cc1 [FLORBETABEN F18]
Ratio [4]: 4.8

SMILES: CN(C)c1ccc(-c2cc3cc(OCCOCCOCC[18F])ccc3o2)cn1
Ratio [4]: 2.11

SMILES: CN(C)c1ccc(-c2cc3cc(OCCOCCOCC[18F])ccc3o2)cc1
Drug uptake [5]: 1.76 % ID/g
Drug uptake [6]: 2.8 % ID/g
Drug uptake [7]: 2.48 % ID/g
Drug uptake [8]: 2.74 % ID/g
Drug uptake [11]: 3.14 % ID/g
Drug uptake [14]: 1.64 % ID/g
Drug uptake [23]: 5.66 % ID/g
Drug uptake [26]: 1.19 % ID/g
Drug uptake [33]: 3.63 % ID/g
Ratio [4]: 1.02
Drug uptake [43]: 2.68 % ID/g
Drug uptake [44]: 3.41 % ID/g
Drug uptake [47]: 2.88 % ID/g

SMILES: CN(C)c1ccc(-c2cc3cc(OCCOCCOCCF)ccc3o2)cc1
Ki [1]: 2 nM

Further lines, results first:

Ki [1]: 9 nM
SMILES: CNc1ccc(-c2nc3ccc(O)cc3s2)cc1 [PITTSBURGH COMPOUND B UNLABELLED]

Ki [1]: 0.95 nM
SMILES: CN(C)c1ccc(-c2cc3cc(OCCOCCOCCF)ccc3o2)cn1

Ki [1]: 3.85 nM
Activity [3]: inactive
SMILES: CNc1ccc(-c2cc3cc(OCCOCCOCCF)ccc3o2)cc1

Drug uptake [5]: 1.63 % ID/g
Drug uptake [6]: 3.15 % ID/g
Drug uptake [7]: 3.02 % ID/g
Drug uptake [8]: 1.72 % ID/g
Drug uptake [9]: Not Active
Drug uptake [10]: 5.68 % ID/g
Drug uptake [11]: 4.03 % ID/g
Drug uptake [12]: 17.5 % ID/g
Drug uptake [13]: 3.59 % ID/g
Drug uptake [14]: 4.96 % ID/g
Drug uptake [15]: 2.91 % ID/g
Drug uptake [16]: 2.15 % ID/g
Drug uptake [17]: 5.14 % ID/g
Drug uptake [18]: 8.39 % ID/g
Drug uptake [19]: 24.1 % ID/g
Drug uptake [20]: Active
Drug uptake [21]: 4.24 % ID/g
Drug uptake [22]: 16.8 % ID/g
Drug uptake [23]: 4.86 % ID/g
Drug uptake [24]: 4.34 % ID/g
Drug uptake [25]: 2.55 % ID/g
Drug uptake [26]: 2.65 % ID/g
Drug uptake [27]: 3.73 %ID
Drug uptake [28]: 18.8 %ID
Drug uptake [29]: 2.51 % ID/g
Drug uptake [30]: 4.91 % ID/g
Drug uptake [31]: 2.88 % ID/g
Drug uptake [32]: 7.83 % ID/g
Drug uptake [33]: 1.79 % ID/g
Drug uptake [34]: 2.24 % ID/g
Drug uptake [35]: 5.19 % ID/g
Ratio [4]: 2.34
Drug uptake [36]: 11.9 % ID/g
Drug uptake [37]: 22.5 %ID
Drug uptake [38]: 2.68 % ID/g
Drug uptake [39]: 3.7 % ID/g
Drug uptake [40]: 6.22 % ID/g
Drug uptake [41]: 19.2 % ID/g
Drug uptake [42]: 30.9 % ID/g
Drug uptake [43]: 2.66 % ID/g
Drug uptake [44]: 2.42 % ID/g
Drug uptake [45]: 8.71 % ID/g
Drug uptake [46]: 3.12 % ID/g
Drug uptake [47]: 7.38 % ID/g
Drug uptake [48]: 7.55 %ID
Drug uptake [49]: 3.14 % ID/g
Drug uptake [50]: 2.6 % ID/g
SMILES: CNc1ccc(-c2cc3cc(OCCOCCOCC[18F])ccc3o2)cn1

Ratio [4]: 3.8
SMILES: CNc1ccc(/C=C/c2ccc(OCCOCCOCC[18F])nc2)cc1 [FLORBETAPIR F 18]

Drug uptake [5]: 1.98 % ID/g
Drug uptake [6]: 3.87 % ID/g
Drug uptake [7]: 4.17 % ID/g
Drug uptake [8]: 3.3 % ID/g
Drug uptake [9]: Not Active
Drug uptake [11]: 4.26 % ID/g
Drug uptake [14]: 4.1 % ID/g
Drug uptake [20]: Active
Drug uptake [23]: 6.43 % ID/g
Drug uptake [26]: 1.57 % ID/g
Drug uptake [33]: 2.07 % ID/g
Ratio [4]: 2.11
Drug uptake [43]: 5.33 % ID/g
Drug uptake [44]: 7.33 % ID/g
Drug uptake [47]: 8.18 % ID/g
SMILES: CNc1ccc(-c2cc3cc(OCCOCCOCC[18F])ccc3o2)cc1
